ChEMBL document CHEMBL1137396, “Discovery of (1R,5S)-N-[3-amino-1-(cyclobutylmethyl)-2,3-dioxopropyl]- 3-[2(S)-[[[(1,1-dimethylethyl)amino]carbonyl]amino]-3,3-dimethyl-1-oxobutyl]- 6,6-dimethyl-3-azabicyclo[3.1.0]hexan-2(S)-carboxamide (SCH 503034), a selective, potent, orally bioavailable hepatitis C virus NS3 protease …” (J Med Chem, 2006)

Legend:
NS3 = NS3 (Hepatitis C virus, UniProt A3EZJ3); test: Binding affinity at HCV NS3 protease; parameters: species or system Hepatitis C virus subtype 1b
Chain of NS3 (A3EZJ3 whole entry): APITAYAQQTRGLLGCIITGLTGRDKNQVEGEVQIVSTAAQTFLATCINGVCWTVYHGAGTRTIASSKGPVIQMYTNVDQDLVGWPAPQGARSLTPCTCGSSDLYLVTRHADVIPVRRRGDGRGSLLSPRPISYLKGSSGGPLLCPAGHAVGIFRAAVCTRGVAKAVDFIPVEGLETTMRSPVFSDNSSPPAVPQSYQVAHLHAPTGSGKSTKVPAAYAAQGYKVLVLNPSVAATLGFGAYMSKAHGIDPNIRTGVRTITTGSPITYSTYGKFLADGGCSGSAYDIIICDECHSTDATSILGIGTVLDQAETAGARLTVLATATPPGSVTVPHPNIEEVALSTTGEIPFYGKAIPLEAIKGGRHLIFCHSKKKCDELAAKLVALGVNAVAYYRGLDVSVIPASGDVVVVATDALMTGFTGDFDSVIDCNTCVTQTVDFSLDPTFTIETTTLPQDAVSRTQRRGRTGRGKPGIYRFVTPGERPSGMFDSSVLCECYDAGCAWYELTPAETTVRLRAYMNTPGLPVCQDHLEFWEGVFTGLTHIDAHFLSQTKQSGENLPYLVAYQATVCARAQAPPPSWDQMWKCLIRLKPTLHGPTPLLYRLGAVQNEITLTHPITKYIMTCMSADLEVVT

Huh-5-2 = test: Cytotoxicity against hepatoma cell line containing HCV replicon measured as change in GAPDH RNA level; format: functional, Homo sapiens
[1] = Selectivity for human neutrophil elastase (HNE) over HCV NS3 protease
Hepatocyte = test: Inhibition of HCV replication in hepatocytes measured by cellular replicon assay; format: functional; settings: Hepatitis C virus
[2] = AUC(0-6h) in rat at 10 mg, po; format: ADME, organism-based; parameters: time < 6 hr, dose 10 mg, route oral; settings: plasma
[3] = AUC in rat at 10 mg/kg, po; format: ADME, organism-based; parameters: dose 10 mg/kg, route oral; settings: plasma
[4] = Bioavailability in rat at 10 mg/kg, po; format: ADME, organism-based; settings: in vivo

| SMILES | Ki (NS3) [nM] | Selectivity ratio [1] | other results |
| --- | --- | --- | --- |
| CCCC(NC(=O)[C@@H]1[C@@H]2[C@H](CN1C(=O)[C@@H](NC(=O)OC(C)(C)C)C1CCCCC1)C2(C)C)C(=O)C(=O)NCC(=O)OC(C)(C)c1ccccc1 (some centres undefined) | 50 |  |  |
| CC1(NC(=O)N[C@H](C(=O)N2C[C@H]3[C@@H]([C@H]2C(=O)NC(CC2CC2)C(=O)C(N)=O)C3(C)C)C(C)(C)C)CC1 (some centres undefined) | 80 | 100 | Activity (Huh-5-2): >5 µM; EC90 (Hepatocyte): 900 nM |
| CC(C)CC(NC(=O)[C@@H]1[C@@H]2[C@H](CN1C(=O)[C@@H](NC(=O)OC(C)(C)C)C1CCCCC1)C2(C)C)C(=O)C(N)=O (some centres undefined) | 400 | 9 |  |
| CC(C)(C)OC(=O)N[C@H](C(=O)N1C[C@H]2[C@@H]([C@H]1C(=O)NC(CC1CC1)C(=O)C(N)=O)C2(C)C)C1(C)CC1 (some centres undefined) | 300 |  |  |
| CC(C)(C)OC(=O)N[C@H](C(=O)N1C[C@H]2[C@@H]([C@H]1C(=O)NC(CC1CCC1)C(=O)C(N)=O)C2(C)C)C1Cc2ccccc2C1 (some centres undefined) | 270 |  | Activity (Huh-5-2): >5 µM; EC90 (Hepatocyte): 2000 nM |
| CC(C)(C)OC(=O)N[C@H](C(=O)N1C[C@H]2[C@@H](C1C(=O)NC(CC1CCO1)C(=O)C(N)=O)C2(C)C)C1CCCCC1 (some centres undefined) | 90 | 140 |  |
| CCCC(NC(=O)[C@@H]1[C@@H]2[C@H](CN1C(=O)[C@@H](NC(=O)OC(C)(C)C)C1CCCCC1)C2(C)C)C(=O)C(=O)O (some centres undefined) | 110 |  |  |
| CCCC(NC(=O)[C@@H]1[C@@H]2[C@H](CN1C(=O)[C@@H](NC(=O)OC(C)(C)C)C1CCCCC1)C2(C)C)C(=O)C(=O)NCC(=O)NCC1CC1 (some centres undefined) | 130 |  |  |
| CCCC(NC(=O)[C@@H]1[C@@H]2[C@H](CN1C(=O)[C@@H](NC(=O)OC(C)(C)C)C1CCCCC1)C2(C)C)C(=O)C(=O)NCC(N)=O (some centres undefined) | 790 |  |  |
| C=CCCC(NC(=O)[C@@H]1[C@@H]2[C@H](CN1C(=O)[C@@H](NC(=O)OC(C)(C)C)C1CCCCC1)C2(C)C)C(=O)C(N)=O (some centres undefined) | 150 | 2 |  |
| CCCC(NC(=O)[C@@H]1[C@@H]2[C@H](CN1C(=O)[C@@H](NC(=O)OC(C)(C)C)C1CCCCC1)C2(C)C)C(=O)C(=O)NCC(=O)N[C@H](C)c1ccccc1 (some centres undefined) | 55 |  |  |
| CC(C)[C@H](NC(=O)OC(C)(C)C)C(=O)N1C[C@H]2[C@@H]([C@H]1C(=O)NC(CC1CC1)C(=O)C(N)=O)C2(C)C (some centres undefined) | 210 | 19 |  |
| CC(C)(C)OC(=O)N[C@H](C(=O)N1C[C@H]2[C@@H]([C@H]1C(=O)NC(CC1CC1)C(=O)C(N)=O)C2(C)C)C1Cc2ccccc2C1 (some centres undefined) | 82 | 49 | Activity (Huh-5-2): >5 µM; EC90 (Hepatocyte): > 1000 nM |
| C[C@@H](NC(=O)N[C@H](C(=O)N1C[C@H]2[C@@H]([C@H]1C(=O)NC(CC1CCC1)C(=O)C(N)=O)C2(C)C)C(C)(C)C)C(C)(C)C (some centres undefined) | 35 | 380 | Activity (Huh-5-2): >5 µM; EC90 (Hepatocyte): 400 nM |
| C=C(C)CC(NC(=O)[C@@H]1[C@@H]2[C@H](CN1C(=O)[C@@H](NC(=O)OC(C)(C)C)C1CCCCC1)C2(C)C)C(=O)C(N)=O (some centres undefined) | 300 | 2 |  |
| CCC(NC(=O)[C@@H]1[C@@H]2[C@H](CN1C(=O)[C@@H](NC(=O)OC(C)(C)C)C1CCCCC1)C2(C)C)C(=O)C(N)=O (some centres undefined) | 740 |  |  |
| CC(C)(C)[C@H](NC(=O)OC1CC1)C(=O)N1C[C@H]2[C@@H]([C@H]1C(=O)NC(CC1CC1)C(=O)C(N)=O)C2(C)C (some centres undefined) | 300 |  |  |
| CC(C)(C)NC(=O)N[C@H](C(=O)N1C[C@H]2[C@@H]([C@H]1C(=O)NC(CC1CC1)C(=O)C(N)=O)C2(C)C)C1CCCCC1 (some centres undefined) | 50 | 38 |  |
| CC(C)COC(=O)N[C@H](C(=O)N1C[C@H]2[C@@H]([C@H]1C(=O)NC(CC1CC1)C(=O)C(N)=O)C2(C)C)C(C)(C)C (some centres undefined) | 70 | 160 |  |
| CCCC(NC(=O)[C@@H]1[C@@H]2[C@H](CN1C(=O)[C@@H](NC(=O)OC(C)(C)C)C1CCCCC1)C2(C)C)C(=O)C(=O)N(C)C (some centres undefined) | > 13000 |  |  |
| CC(C)(C)OC(=O)N[C@H](C(=O)N1C[C@H]2[C@@H]([C@H]1C(=O)NC(CC1CCCC1)C(=O)C(N)=O)C2(C)C)C1CCCCC1 (some centres undefined) | 150 | 370 |  |

| SMILES | Ki (NS3) [nM] | Selectivity ratio [1] | other results |
| --- | --- | --- | --- |
| CC(C)(C)OC(=O)N[C@H](C(=O)N1C[C@H]2[C@@H]([C@H]1C(=O)NC1(C(=O)C(N)=O)CC1)C2(C)C)C1CCCCC1 | > 14000 |  |  |
| CC(C)(C)OC(=O)N[C@H](C(=O)N1C[C@H]2[C@@H]([C@H]1C(=O)NC(CC1CC1)C(=O)C(N)=O)C2(C)C)C(C)(C)C (some centres undefined) |  |  | Activity (Huh-5-2): >5 µM; EC90 (Hepatocyte): 600 nM |
| CN(C(=O)N[C@H](C(=O)N1C[C@H]2[C@@H]([C@H]1C(=O)NC(CC1CCC1)C(=O)C(N)=O)C2(C)C)C(C)(C)C)C(C)(C)C (some centres undefined) | 100 | 270 |  |
| CC(C)(C)OC(=O)N[C@H](C(=O)N1C[C@H]2[C@@H]([C@H]1C(=O)NC(CC1COC1)C(=O)C(N)=O)C2(C)C)C1CCCCC1 (some centres undefined) | 400 |  | Activity (Huh-5-2): >5 µM; EC90 (Hepatocyte): > 1000 nM |
| CCCC(NC(=O)[C@@H]1[C@@H]2[C@H](CN1C(=O)[C@@H](NC(=O)OC(C)(C)C)C1CCCCC1)C2(C)C)C(=O)C(=O)NC (some centres undefined) | 1500 |  | AUC(0-t) at 6 h [2]: 13.4 µM·h |
| CC(C)(C)OC(=O)N[C@H](C(=O)N1C[C@H]2[C@@H]([C@H]1C(=O)NC(CC1CCCCC1)C(=O)C(N)=O)C2(C)C)C1CCCCC1 (some centres undefined) | > 12000 |  |  |
| CC(C)NC(=O)N[C@H](C(=O)N1C[C@H]2[C@@H]([C@H]1C(=O)NC(CC1CC1)C(=O)C(N)=O)C2(C)C)C(C)(C)C (some centres undefined) | 140 | 160 |  |
| CC(C)(C)OC(=O)N[C@H](C(=O)N1C[C@H]2[C@@H](C1C(=O)NC(CC(F)(F)F)C(=O)C(N)=O)C2(C)C)C1CCCCC1 (some centres undefined) | 50 | 2 | Activity (Huh-5-2): >5 µM; EC90 (Hepatocyte): 700 nM |
| CC(C)(C)OC(=O)N[C@H](C(=O)N1C[C@H]2[C@@H]([C@H]1C(=O)NC(CC1CCC1)C(=O)C(N)=O)C2(C)C)C(C)(C)C (some centres undefined) | 76 | 684 | Activity (Huh-5-2): >5 µM; EC90 (Hepatocyte): 800 nM |
| CC(C)(C)OC(=O)N[C@H](C(=O)N1C[C@H]2[C@@H]([C@H]1C(=O)NC(CC1CCC1)C(=O)C(N)=O)C2(C)C)C1(C)CC1 (some centres undefined) | 700 |  |  |
| CCCC(NC(=O)[C@@H]1[C@@H]2[C@H](CN1C(=O)[C@@H](NC(=O)OC(C)(C)C)C1CCCCC1)C2(C)C)C(=O)C(=O)NCC(=O)N[C@@H](C)C1CCCCC1 (some centres undefined) | 92 |  |  |
| CC(C)(C)NC(=O)N[C@H](C(=O)N1C[C@H]2[C@@H]([C@H]1C(=O)NC(CC1CCC1)C(=O)C(N)=O)C2(C)C)C1CCCCC1 (some centres undefined) | 50 | 90 |  |
| CC(C)(C)OC(=O)N[C@H](C(=O)N1C[C@H]2[C@@H]([C@H]1C(=O)NC(CC1CC1)C(=O)C(N)=O)C2(C)C)C1CCCC1 (some centres undefined) | 100 | 11 |  |
| CC(C)(C)OC(=O)N[C@H](C(=O)N1C[C@H]2[C@@H]([C@H]1C(=O)NC(CC1CCC1)C(=O)C(N)=O)C2(C)C)C(C)(C)O (some centres undefined) | 220 | 55 |  |
| C=CCNC(=O)C(=O)C(CCC)NC(=O)[C@@H]1[C@@H]2[C@H](CN1C(=O)[C@@H](NC(=O)OC(C)(C)C)C1CCCCC1)C2(C)C (some centres undefined) | 280 |  | AUC(0-t) at 6 h [2]: 26 µM·h |
| CC(C)(C)OC(=O)N[C@H](C(=O)N1C[C@H]2[C@@H]([C@H]1C(=O)NC(CC1CC1)C(=O)C(N)=O)C2(C)C)C1CCCCC1 (some centres undefined) | 25 | 23 | AUC [3]: 1.3 µM·h; bioavailability [4]: 3.4%; Activity (Huh-5-2): >5 µM; EC90 (Hepatocyte): 400 nM |
| CC(C)NC(=O)N[C@H](C(=O)N1C[C@H]2[C@@H]([C@H]1C(=O)NC(CC1CCC1)C(=O)C(N)=O)C2(C)C)C(C)(C)C (some centres undefined) | 16 | 4200 | AUC [3]: 0.83 µM·h; bioavailability [4]: 13%; Activity (Huh-5-2): >5 µM; EC90 (Hepatocyte): 730 nM |
| CC(C)[C@H](C)OC(=O)N[C@H](C(=O)N1C[C@H]2[C@@H]([C@H]1C(=O)NC(CC1CCC1)C(=O)C(N)=O)C2(C)C)C(C)(C)C (some centres undefined) | 36 | 3800 | Activity (Huh-5-2): >5 µM; EC90 (Hepatocyte): 700 nM |
| CCCCNC(=O)C(=O)C(CCC)NC(=O)[C@@H]1[C@@H]2[C@H](CN1C(=O)[C@@H](NC(=O)OC(C)(C)C)C1CCCCC1)C2(C)C (some centres undefined) | 1900 |  |  |
| CC(C)OC(=O)N[C@H](C(=O)N1C[C@H]2[C@@H]([C@H]1C(=O)NC(CC1CC1)C(=O)C(N)=O)C2(C)C)C(C)(C)C (some centres undefined) | 150 | 100 |  |
| CN(C(=O)N[C@H](C(=O)N1C[C@H]2[C@@H]([C@H]1C(=O)NC(CC1CC1)C(=O)C(N)=O)C2(C)C)C(C)(C)C)C(C)(C)C (some centres undefined) | 60 | 45 | Activity (Huh-5-2): >5 µM; EC90 (Hepatocyte): > 1000 nM |
